Data taken from patent US9440982B2 (Eolas Therapeutics, Inc., priority 2012, dated 2016).

Each compound was assayed against T1, CYP3A4 (Homo sapiens, UniProt P08684) (assay: Cytochrome P450 inhibition assay (midazolam hydroxylation)). Conditions: human, human liver microsomes, probe midazolam (hydroxylation to 1′-hydroxymidazolam), 10 μM test compound, midazolam at approximately its Km.
T1 construct: pre-incubated with human liver microsomes and NADPH; from tissue; host or cells: human liver microsomes
T1 sequence (P08684 whole entry): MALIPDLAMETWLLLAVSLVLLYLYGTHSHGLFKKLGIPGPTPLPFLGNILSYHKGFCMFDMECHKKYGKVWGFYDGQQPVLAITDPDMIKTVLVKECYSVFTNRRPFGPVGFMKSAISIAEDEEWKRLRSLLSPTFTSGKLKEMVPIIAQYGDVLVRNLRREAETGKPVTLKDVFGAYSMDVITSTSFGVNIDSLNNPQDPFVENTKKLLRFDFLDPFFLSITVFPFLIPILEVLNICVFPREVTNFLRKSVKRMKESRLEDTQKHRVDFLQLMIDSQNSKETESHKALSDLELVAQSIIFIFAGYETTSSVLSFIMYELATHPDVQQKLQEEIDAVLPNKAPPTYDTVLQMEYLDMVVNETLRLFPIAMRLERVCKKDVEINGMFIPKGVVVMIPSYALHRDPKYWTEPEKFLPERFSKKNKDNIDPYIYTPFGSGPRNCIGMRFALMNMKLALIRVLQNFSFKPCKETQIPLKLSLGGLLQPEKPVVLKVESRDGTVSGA
Type: in vitro ADME
How it was run: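 Percent inhibition of midazolam 1′-hydroxylation by 10 μM compound was measured, midazolam dosed at about Km. Time-dependent inhibition was probed by a 30 min preincubation of compound with human liver microsomes and NADPH ahead of substrate, compared against samples without preincubation.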
With `Cc1ccc(-n2nccn2)c(C(=O)N2CCC(F)(F)C[C@H]2CNc2ncc(C(F)(F)F)cn2)c1` [Example A211, (S)-(4,4-Difluoro-2-(((5-(trifluoromethyl)pyrimidin-2-yl)amino)methyl)piperidin-1-yl)(5-methyl-2-(2H-1,2,3-triazol-2-yl)phenyl)methanone] the inhibition at 10 µM was 60%. For `Cc1ccc(-c2ccnc(C)n2)c(C(=O)N2CCC[C@@H](C)[C@H]2CNc2nc3cc(Cl)ccc3o2)c1` [Example A27, ((2S,3R)-2-(((5-Chlorobenzo[d]oxazol-2-yl)amino)methyl)-3-methylpiperidin-1-yl)(5-methyl-2-(2-methylpyrimidin-4-yl)phenyl)methanone], the inhibition at 10 µM was 95%. `Cc1ccc(-c2cnn(C)c2)c(C(=O)N2CCC[C@@H](C)[C@H]2CNc2nnc(C(F)(F)F)s2)c1` [Example A103, ((2S,3R)-3-Methyl-2-(((5-(trifluoromethyl)-1,3,4-thiadiazol-2-yl)amino)methyl)piperidin-1-yl)(5-methyl-2-(1-methyl-1H-pyrazol-4-yl)phenyl)methanone] was tested, and the inhibition at 10 µM was 95%. Work on `Cc1ccc(-c2cncs2)c(C(=O)N2CCC[C@@H](C)[C@H]2CNc2ccc(C(F)(F)F)cn2)c1` [Example A25, ((2S,3R)-3-Methyl-2-(((5-(trifluoromethyl)pyridin-2-yl)amino)methyl)piperidin-1-yl)(5-methyl-2-(thiazol-5-yl)phenyl)methanone] yielded an inhibition at 10 µM of 99%. `Cc1ccc(-n2cccn2)c(C(=O)N2CCC[C@@H](C)[C@H]2CNc2ccc(C(F)(F)F)nn2)n1` [Example A164, ((2S,3R)-3-Methyl-2-(((6-(trifluoromethyl)pyridazin-3-yl)amino)methyl)piperidin-1-yl)(6-methyl-3-(1H-pyrazol-1-yl)pyridin-2-yl)methanone] showed an inhibition at 10 µM of 37%. Work on `Cc1ccc(-n2nccn2)c(C(=O)N2CCC[C@@H](C)[C@H]2CNc2ccc(Cl)cn2)n1` [Example A178, ((2S,3R)-2-(((5-Chloropyridin-2-yl)amino)methyl)-3-methylpiperidin-1-yl)(6-methyl-3-(2H-1,2,3-triazol-2-yl)pyridin-2-yl)methanone] yielded an inhibition at 10 µM of 64%. In the case of `Cc1cccc(C(=O)N2CCC[C@@H](C)[C@H]2CNc2ccc(C(F)(F)F)cn2)c1-n1nccn1` [Example A266, ((2S,3R)-3-Methyl-2-(((5-(trifluoromethyl)pyridin-2-yl)amino)methyl)piperidin-1-yl)(3-methyl-2-(2H-1,2,3-triazol-2-yl)phenyl)methanone], the inhibition at 10 µM is reported as 76%. `Cc1ccc(-n2ccc(C)n2)c(C(=O)N2CCC[C@@H](C)[C@H]2CNc2ccc(C(F)(F)F)cn2)c1` [Example A108, ((2S,3R)-3-Methyl-2-(((5-(trifluoromethyl)pyridin-2-yl)amino)methyl)piperidin-1-yl)(5-methyl-2-(3-methyl-1H-pyrazol-1-yl)phenyl)methanone] showed an inhibition at 10 µM of 88%. For `Cc1cccc(C(=O)N2CCC[C@@H](C)[C@H]2CNc2ncc(Cl)cn2)c1-n1nccn1` [Example A268, ((2S,3R)-2-(((5-Chloropyrimidin-2-yl)amino)methyl)-3-methylpiperidin-1-yl)(3-methyl-2-(2H-1,2,3-triazol-2-yl)phenyl)methanone], the inhibition at 10 µM was 60%. Work on `Cc1ccc(-n2nccn2)c(C(=O)N2CCC[C@@H](C)[C@H]2CNc2ncc(Cl)cn2)c1` [Example A147, ((2S,3R)-2-(((5-Chloropyrimidin-2-yl)amino)methyl)-3-methylpiperidin-1-yl)(5-methyl-2-(2H-1,2,3-triazol-2-yl)phenyl)methanone] yielded an inhibition at 10 µM of 66%. Work on `Cc1ccc(NC[C@@H]2[C@H](C)CCCN2C(=O)c2cc(C)ccc2-n2nccn2)nc1` [Example A48, ((2S,3R)-3-Methyl-2-(((5-methylpyridin-2-yl)amino)methyl)piperidin-1-yl)(5-methyl-2-(2H-1,2,3-triazol-2-yl)phenyl)methanone] yielded an inhibition at 10 µM of 74%. `Cc1cc(F)c(-c2ncccn2)c(C(=O)N2CCC[C@@H](C)[C@H]2CNc2ccc(C(F)(F)F)cn2)c1` [Example A374, (3-fluoro-5-methyl-2-(pyrimidin-2-yl)phenyl)((2S,3R)-3-methyl-2-(((5-(trifluoromethyl)pyridin-2-yl)amino)methyl)piperidin-1-yl)methanone] showed an inhibition at 10 µM of 76%. Work on `Cc1ccc(-c2nccs2)c(C(=O)N2CCC[C@@H](C)[C@H]2CNc2nc3cc(Cl)ccc3o2)c1` [Example A30, ((2S,3R)-2-(((5-Chlorobenzo[d]oxazol-2-yl)amino)methyl)-3-methylpiperidin-1-yl)(5-methyl-2-(thiazol-2-yl)phenyl)methanone] yielded an inhibition at 10 µM of 97%. Work on `Cc1ccc(-c2ccccn2)c(C(=O)N2CCC[C@@H](C)[C@H]2CNc2ccc(C(F)(F)F)nn2)n1` [Example A165, ((2S,3R)-3-methyl-2-(((6-(trifluoromethyl)pyridazin-3-yl)amino)methyl)piperidin-1-yl)(6′-methyl-[2,3′-bipyridin]-2′-yl)methanone] yielded an inhibition at 10 µM of 42%. In the case of `Cc1ccc(-c2nccc(C)n2)c(C(=O)N2CCC[C@@H](C)[C@H]2CNc2nc3cc(Cl)ccc3o2)c1` [Example A35, ((2S,3R)-2-(((5-Chlorobenzo[d]oxazol-2-yl)amino)methyl)-3-methylpiperidin-1-yl)(5-methyl-2-(4-methylpyrimidin-2-yl)phenyl)methanone], the inhibition at 10 µM is reported as 92%. Work on `Cc1ccc(-n2ccnc2)c(C(=O)N2CCC[C@@H](C)[C@H]2CNc2nc3cc(Cl)ccc3o2)c1` [Example A33, (2-(1H-Imidazol-1-yl)-5-methylphenyl)((2S,3R)-2-(((5-chlorobenzo[d]oxazol-2-yl)amino)methyl)-3-methylpiperidin-1-yl)methanone] yielded an inhibition at 10 µM of 98%. `C[C@@H]1CCCN(C(=O)c2cc(F)c(F)cc2-n2nccn2)[C@@H]1CNc1ccc(Cl)cn1` [Example A246, ((2S,3R)-2-(((5-Chloropyridin-2-yl)amino)methyl)-3-methylpiperidin-1-yl)(4,5-difluoro-2-(2H-1,2,3-triazol-2-yl)phenyl)methanone] showed an inhibition at 10 µM of 69%. In the case of `Cc1ccc(-n2cccn2)c(C(=O)N2CCC[C@@H](C)[C@H]2CNc2ncc(F)cn2)c1` [Example A170, ((2S,3R)-2-(((5-Fluoropyrimidin-2-yl)amino)methyl)-3-methylpiperidin-1-yl)(5-methyl-2-(1H-pyrazol-1-yl)phenyl)methanone], the inhibition at 10 µM is reported as 66%. With `Cc1ccc(-c2cncs2)c(C(=O)N2CCC[C@@H](C)[C@H]2CNc2nc3cc(Cl)ccc3o2)c1` [Example A34, ((2S,3R)-2-(((5-Chlorobenzo[d]oxazol-2-yl)amino)methyl)-3-methylpiperidin-1-yl)(5-methyl-2-(thiazol-5-yl)phenyl)methanone] the inhibition at 10 µM was 99%. In the case of `C[C@@H]1CCCN(C(=O)c2cc(F)ccc2-c2ncccn2)[C@@H]1CNc1ncc(Cl)cn1` [Example A226, ((2S,3R)-2-(((5-Chloropyrimidin-2-yl)amino)methyl)-3-methylpiperidin-1-yl)(5-fluoro-2-(pyrimidin-2-yl)phenyl) methanone], the inhibition at 10 µM is reported as 60%. In the case of `C[C@@H]1CCCN(C(=O)c2cc(F)ccc2-n2nccn2)[C@@H]1CNc1ncc(C(F)(F)F)cn1` [Example A207, (5-Fluoro-2-(2H-1,2,3-triazol-2-yl)phenyl)((2S,3R)-3-methyl-2-(((5-(trifluoromethyl)pyrimidin-2-yl)amino)methyl)piperidin-1-yl)methanone], the inhibition at 10 µM is reported as 44%.
